Test results published in US20250221979A1, “NOVEL HETEROCYCLIC COMPOUND” (SHOUYAO HOLDINGS (BEIJING) CO., LTD., priority 2022, published 2025).

Biological target: human MAT2A enzyme (Homo sapiens (Human), UniProt P31153)
Experiment: In vitro enzymatic inhibition activity assay on MAT2A (PiColorLock phosphate detection)
Format: biochemical
Settings: purified human MAT2A 10 nM, ATP 50 μM, L-methionine 100 μM, 6 h at 23° C.; read-out: MAT2A inhibitory activity IC50
In short: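 IC50 came from an 8-point, 10-fold compound series that reduced phosphate release, measured by absorbance at 630 nm. Reactions ran 6 h at 23 °C with 10 nM human MAT2A, 50 μM ATP and 100 μM L-methionine in pH 7.5 Tris buffer containing Mg2+.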

Chain of human MAT2A enzyme (P31153 whole entry): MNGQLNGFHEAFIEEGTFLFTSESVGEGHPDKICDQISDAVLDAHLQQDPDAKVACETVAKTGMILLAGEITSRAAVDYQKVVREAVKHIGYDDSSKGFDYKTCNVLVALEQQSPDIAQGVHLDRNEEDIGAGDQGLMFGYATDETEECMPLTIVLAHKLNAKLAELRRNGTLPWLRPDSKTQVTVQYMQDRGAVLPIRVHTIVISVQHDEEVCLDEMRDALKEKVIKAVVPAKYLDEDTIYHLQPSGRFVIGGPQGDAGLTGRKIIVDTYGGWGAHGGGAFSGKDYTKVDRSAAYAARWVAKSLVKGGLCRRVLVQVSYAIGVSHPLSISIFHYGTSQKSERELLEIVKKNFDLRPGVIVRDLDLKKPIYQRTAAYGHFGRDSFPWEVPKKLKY

SMILES	IC50 [nM]
COC(=O)c1c(N)c2ccc(Br)cc2n(-c2cccc3c(C)nccc23)c1=O [Example 231, methyl 4-amino-1-(1-methylisoquinolin-5-yl)-7-bromo-2-oxo-1,2-dihydroquinoline-3-carboxylate]	2.36
[2H]C([2H])([2H])OC(=O)c1c(N)c2ccc(Br)cc2n(-c2ccc([C@@H](C)O)cc2)c1=O [Example 351, methyl-d3 (R)-4-amino-7-bromo-1-(4-(1-hydroxyethyl)phenyl)-2-oxo-1,2-dihydroquinolin-3-carboxylate]	1.05
COC(=O)c1c(N)c2ccc(I)cc2n(-c2cnc(Cl)cc2C)c1=O [Example 225, methyl 4-amino-1-(6-chloro-4-methylpyridin-3-yl)-7-iodo-2-oxo-1,2-dihydroquinoline-3-carboxylate]	3.11
COC(=O)c1c(N)c2ccc(C3CC3)nc2n(-c2ccc(N)cc2)c1=O [Example 373, methyl 4-amino-1-(4-aminophenyl)-7-cyclopropyl-2-oxo-1,2-dihydro-1,8-naphthyridine-3-carboxylate]	1.05
[2H]CC(O)c1ccc(-n2c(=O)c(C(=O)OC([2H])([2H])[2H])c(N)c3ccc(C(F)(F)F)nc32)cc1 (stereo not drawn) [Example 371, methyl-d3 4-amino-1-(4-(1-hydroxyethyl-2-d)phenyl)-2-oxo-7-(trifluoromethyl)-1,2-dihydro-1,8-naphthyridine-3-carboxylate]	1.45
COC(=O)c1c(N)c2ccc(C3CC3)nc2n(-c2ccc(C)nc2)c1=O [Example 377, methyl 4-amino-7-cyclopropyl-1-(6-methylpyridin-3-yl)-2-oxopyrido[2,3-b]pyridin-3-carboxylate]	1.89
COC(=O)c1c(N)c2ccc(C(F)(F)F)nc2n(-c2ccccc2)c1=O [Example 150, methyl 4-amino-2-oxo-1-phenyl-7-(trifluoromethyl)-1,2-dihydro-1,8-naphthyridine-3-carboxylate]	1.66
COC(=O)c1c(N)c2ccc(Br)nc2n(-c2ccc(Cl)c3cnccc23)c1=O [Example 289, methyl 4-amino-1-(8-chloroisoquinolin-5-yl)-7-bromo-2-oxo-1,2-dihydro-1,8-naphthyridine-3-carboxylate]	1.04
CCOC(=O)c1c(N)c2ccc(Br)cc2n(-c2ccc3ncoc3c2)c1=O [Example 257, ethyl 4-amino-1-(benzo[d]oxazol-6-yl)-7-bromo-2-oxo-1,2-dihydroquinoline-3-carboxylate]	2.09
COC(=O)c1c(N)c2ccc(C3CC3)nc2n(-c2ccc(C(C)O)cc2)c1=O (stereo not drawn) [Example 360, methyl 4-amino-7-cyclopropyl-1-(4-(1-hydroxyethyl)phenyl)-2-oxo-1,2-dihydro-1,8-naphthyridine-3-carboxylate]	1.27
COC(=O)c1c(N)c2ccc(C(F)(F)F)nc2n(-c2cccc3c(Cl)nccc23)c1=O [Example 318, methyl 4-amino-1-(1-chloroisoquinolin-5-yl)-2-oxo-7-(trifluoromethyl)-1,2-dihydro-1,8-naphthyridine-3-carboxylate]	2.34
COC(=O)c1c(N)c2ccc(Br)cc2n(-c2ccc(N)c3cnccc23)c1=O [Example 178, methyl 4-amino-1-(8-aminoisoquinolin-5-yl)-7-bromo-2-oxo-1,2-dihydroquinoline-3-carboxylate]	2.59
COC(=O)c1c(N)c2ccc(Cl)nc2n(-c2cccc3cnccc23)c1=O [Example 201, methyl 4-amino-7-chloro-1-(isoquinolin-5-yl)-2-oxo-1,2-dihydro-1,8-naphthyridine-3-carboxylate]	5.38
COC(=O)c1c(N)c2ccc(C)nc2n(-c2ccc([C@@H](C)O)cc2)c1=O [Example 343, methyl 4-amino-(1-(4-(1R)-1-hydroxyethyl)phenyl)-7-methyl-2-oxo-pyrido[2,3-b]pyridin-3-carboxylate]	2.39
Nc1c(C(=O)OC2CC2)c(=O)n(-c2ccccc2)c2cc(Cl)ccc12 [Example 49, cyclopropyl 4-amino-7-chloro-2-oxo-1-phenyl-1,2-dihydroquinolin-3-carboxylate]	8.58
COC(=O)c1c(N)c2ccc(Br)cc2n(-c2cnc(Cl)cc2C)c1=O [Example 161, methyl 4-amino-7-bromo-1-(6-chloro-4-methylpyridin-3-yl)-2-oxo-1,2-dihydroquinoline-3-carboxylate]	4.67

The remaining lines, values ahead:

IC50 [nM]	SMILES
4.91	C=Cc1ccc(-n2c(=O)c(C(=O)OC)c(N)c3ccc(C(F)(F)F)cc32)cc1 [Example 132, methyl 4-amino-2-oxo-7-(trifluoromethyl)-1-(4-vinylphenyl)-1,2-dihydroquinoline-3-carboxylate]
9.95	COC(=O)c1c(N)c2ccc(C(F)(F)F)cc2n(-c2ccc(OC)cc2F)c1=O [Example 97, methyl 4-amino-1-(2-fluoro-4-methoxyphenyl)-2-oxo-7-(trifluoromethyl)-1,2-dihydroquinoline-3-carboxylate]
3.39	COC(=O)c1c(N)c2ccc(Br)cc2n(-c2ccc3ncoc3c2)c1=O [Example 268, methyl 4-amino-1-(benzo[d]oxazol-6-yl)-7-bromo-2-oxo-1,2-dihydroquinoline-3-carboxylate]
1.83	COC(=O)c1c(N)c2ccc(C(F)(F)F)cc2n(-c2ccc([C@H](C)O)cc2)c1=O [Example 271, methyl 4-amino-1-(4-(1-(S)-hydroxyethyl)phenyl)-2-oxo-7-(trifluoromethyl)-1,2-dihydroquinoline-3-carboxylate]
7.39	COC(=O)c1c(N)c2ccc(C(F)(F)F)cc2n(-c2ccccc2Br)c1=O [Example 93, methyl 4-amino-1-(2-bromophenyl)-2-oxo-7-(trifluoromethyl)-1,2-dihydroquinoline-3-carboxylate]
1.93	CCc1ccc(-n2c(=O)c(C(=O)OC)c(N)c3ccc(C(F)(F)F)cc32)cc1 [Example 155, methyl 4-amino-1-(4-ethylphenyl)-2-oxo-7-(trifluoromethyl)-1,2-dihydroquinoline-3-carboxylate]
0.59	COC(=O)c1c(N)c2ccc(Br)cc2n(-c2ccc(C)cc2)c1=O [Example 101, methyl 4-amino-7-bromo-1-(4-methylphenyl)-2-oxo-1,2-dihydroquinoline-3-carboxylate]
3.12	COC(=O)c1c(N)c2ccc(C(F)(F)F)cc2n(-c2ccc(C)cc2C)c1=O [Example 149, methyl 4-amino-1-(2,4-dimethylphenyl)-2-oxo-7-(trifluoromethyl)-1,2-dihydroquinoline-3-carboxylate]
7.38	COC(=O)c1c(N)c2ccc(C(F)(F)F)cc2n(-c2cccc3c[nH]nc23)c1=O [Example 267, methyl 4-amino-1-(2H-indazol-7-yl)-2-oxo-7-(trifluoromethyl)-1,2-dihydroquinoline-3-carboxylate]
6.39	COC(=O)c1c(N)c2ccc(C(F)(F)F)cc2n(-c2ccccc2Cl)c1=O [Example 69, methyl 4-amino-1-(2-chlorophenyl)-2-oxo-7-(trifluoromethyl)-1,2-dihydro quinoline-3-carboxylate]
3.79	COC(=O)c1c(N)c2ccc(C(F)(F)F)cc2n(Cc2ccccc2)c1=O [Example 29, methyl 4-amino-1-benzyl-2-oxo-7-(trifluoromethyl)-1,2-dihydroquinoline-3-carboxylate]
1.64	COC(=O)c1c(N)c2ccc(C(F)(F)F)cc2n(-c2ccc(N)cc2C)c1=O [Example 237, methyl 4-amino-1-(4-amino-2-methylphenyl)-2-oxo-7-(trifluoromethyl)-1,2-dihydroquinoline-3-carboxylate]
2.83	COC(=O)c1c(N)c2ccc(C(F)(F)F)cc2n(-c2ccc(OC)nc2)c1=O [Example 212, methyl 4-amino-1-(6-methoxypyridin-3-yl)-2-oxo-7-(trifluoromethyl)-1,2-dihydroquinoline-3-carboxylate]
2.62	Nc1c(C(=O)OC2CC2)c(=O)n(-c2ccccc2)c2cc(C(F)(F)F)ccc12 [Example 51, cyclopropyl 4-amino-2-oxo-1-phenyl-7-(trifluoromethyl)-1,2-dihydroquinolin-3-carboxylate]
2.44	COC(=O)c1c(N)c2ccc(Br)cc2n(-c2cccc(N)c2)c1=O [Example 284, methyl 4-amino-1-(3-aminophenyl)-7-bromo-2-oxo-1,2-dihydroquinoline-3-carboxylate]
3.58	COC(=O)c1c(N)c2ccc(C(F)(F)F)cc2n(-c2ccccc2)c1=O [Example 17, methyl 4-amino-7-trifluoromethyl-2-oxo-1-phenyl-1,2-dihydroquinoline-3-carboxylate]
2.59	COC(=O)c1c(N)c2ccc(C3CC3)cc2n(-c2ccc(C(C)O)cc2)c1=O (stereo not drawn) [Example 328, methyl 4-amino-1-(4-(1-hydroxyethyl)phenyl)-2-oxo-7-cyclopropyl-1,2-dihydroquinoline-3-carboxylate]
8.85	COC(=O)c1c(N)c2ccc(C(F)(F)F)cc2n(-c2ccc3c(c2)CCC3O)c1=O (stereo not drawn) [Example 135, methyl 4-amino-1-(1-hydroxy-2,3-dihydro-1H-inden-5-yl)-2-oxo-7-(trifluoromethyl)-1,2-dihydroquinoline-3-carboxylate]
0.43	COC(=O)c1c(N)c2ccc(C(F)(F)F)cc2n(-c2ccc(OC)cc2)c1=O [Example 25, methyl 4-amino-1-(4-methoxyphenyl)-2-oxo-7-(trifluoromethyl)-1,2-dihydro quinoline-3-carboxylate]
2.49	[2H]C([2H])([2H])OC(=O)c1c(N)c2ccc(C(F)(F)F)cc2n(-c2ccc(C(C)O)cc2)c1=O (stereo not drawn) [Example 331, methyl-d3 4-amino-1-(4-(1-hydroxyethyl)phenyl)-2-oxo-7-(trifluoromethyl)-1,2-dihydroquinolin-3-carboxylate]
